# Results as given in ChEMBL document CHEMBL3808392, “Design, synthesis and biological evaluation of 5-fluorouracil-derived benzimidazoles as novel type of potential antimicrobial agents” (2016).
# Active and inactive are the calls of the source. The rule behind the calls is not given here.
# Key:
# [1] = tested on: Saccharomyces cerevisiae; test: Antimicrobial activity against Saccharomyces cerevisiae after 24 hrs by microbroth dilution method; type: functional
# [2] = Antimicrobial activity against Bacillus proteus ATCC 13315 after 24 hrs by microbroth dilution method; type: functional; settings: ATCC 13315, 24 h
# [3] = tested on: Escherichia coli; test: Antimicrobial activity against Escherichia coli DH52 after 24 hrs by microbroth dilution method; type: functional; settings: DH52, 24 h
# [4] = tested on: Micrococcus luteus; test: Antimicrobial activity against Micrococcus luteus ATCC 4698 after 24 hrs by microbroth dilution method; type: functional; settings: ATCC 4698, 24 h
# [5] = tested on: Salmonella typhi; test: Antimicrobial activity against Bacillus typhi after 24 hrs by microbroth dilution method; type: functional, Salmonella enterica subsp. enterica serovar Typhi; settings: Salmonella enterica
# [6] = tested on: Escherichia coli; test: Antimicrobial activity against Escherichia coli JM109 after 24 hrs by microbroth dilution method; type: functional; settings: JM109, 24 h
# [7] = tested on: Staphylococcus aureus; test: Antimicrobial activity against methicillin-resistant Staphylococcus aureus N315 after 24 hrs by microbroth dilution method; type: functional; settings: N315, 24 h
# [8] = tested on: Candida; test: Antimicrobial activity against Candida mycoderma ATCC 9888 after 24 hrs by microbroth dilution method; type: functional; settings: ATCC 9888, 24 h
# [9] = tested on: Aspergillus flavus; test: Antimicrobial activity against Aspergillus flavus ATCC 204304 after 24 hrs by microbroth dilution method; type: functional; settings: ATCC 204304, 24 h
# [10] = tested on: Bacillus spizizenii; test: Antimicrobial activity against Bacillus subtilis ATCC 6633 after 24 hrs by microbroth dilution method; type: functional; settings: ATCC 6633, 24 h
# [11] = tested on: Candida albicans; test: Antimicrobial activity against Candida albicans ATCC 10231 after 24 hrs by microbroth dilution method; type: functional; settings: ATCC 10231, 24 h
# [12] = tested on: Staphylococcus aureus; test: Antimicrobial activity against Staphylococcus aureus ATCC 25923 after 24 hrs by microbroth dilution method; type: functional; settings: ATCC 25923, 24 h
# [13] = tested on: Calf thymus DNA; test: Binding affinity to calf thymus DNA assessed as compound-DNA complex formation by UV-visible spectroscopy; type: nucleic-acid assay; settings: Bos taurus
# [14] = tested on: Calf thymus DNA; test: Binding affinity to calf thymus DNA assessed as compound-DNA complex formation by fluorescence analysis in presence of quencher potassium iodide; type: nucleic-acid assay; settings: Bos taurus
# [15] = tested on: Saccharomyces cerevisiae; test: Potency index, ratio of fluconazole MIC to compound MIC for antimicrobial activity against Saccharomyces cerevisiae; type: functional
# [16] = tested on: Staphylococcus aureus; test: Potency index, ratio of chloromycin MIC to compound MIC for antimicrobial activity against methicillin-resistant Staphylococcus aureus N315; type: functional
# [17] = tested on: Calf thymus DNA; test: Competitive binding affinity to calf thymus DNA assessed as compound-DNA complex formation at 0.74 to 2.18x10'-5 mol/l by UV-visible spectroscopy in presence of neutral red dye; type: nucleic-acid assay; settings: Bos taurus
# [18] = tested on: Staphylococcus aureus; test: Potency index, ratio of norfloxacin MIC to compound MIC for antimicrobial activity against methicillin-resistant Staphylococcus aureus N315; type: functional
# [19] = tested on: Calf thymus DNA; test: Binding affinity to calf thymus DNA assessed as compound-DNA complex formation at 4.87x10'-5 mol/l by fluorescence analysis; type: nucleic-acid assay; settings: Bos taurus
SMILES,MIC [1] [µg/mL],MIC [2] [µg/mL],MIC [3] [µg/mL],MIC [4] [µg/mL],MIC [5] [µg/mL],MIC [6] [µg/mL],MIC [7] [µg/mL],MIC [8] [µg/mL],MIC [9] [µg/mL],MIC [10] [µg/mL],MIC [11] [µg/mL],MIC [12] [µg/mL],K [13] [×10⁴ L/mol],KSV [14] [L/mol],Ratio [15],Ratio [16],Activity [17],Ratio [18],Activity [19]
CCCCCCCCCCCCn1c(Cn2cc(F)c(=O)[nH]c2=O)nc2ccccc21,64,> 512,> 512,> 512,> 512,> 512,> 512,512,> 512,> 512,> 512,> 512,–,–,–,–,–,–,–
O=c1c(F)cn(Cc2nc3ccccc3n2Cc2cccc(F)c2)c(=O)n1Cc1cccc(F)c1,1,4,2,64,8,8,2,32,8,16,32,4,3.89,6.45,16,8,Active,4,Active
O=c1c(F)cn(Cc2nc3ccccc3n2Cc2cccc(Cl)c2)c(=O)n1Cc1cccc(Cl)c1,64,64,16,128,64,128,128,64,64,64,64,512,–,–,–,–,–,–,–
O=c1c(F)cn(Cc2nc3ccccc3n2Cc2ccc([N+](=O)[O-])cc2)c(=O)n1Cc1ccc([N+](=O)[O-])cc1,> 512,> 512,> 512,> 512,32,> 512,> 512,> 512,> 512,32,> 512,> 512,–,–,–,–,–,–,–
CCCCCCCCn1c(=O)c(F)cn(Cc2nc3ccccc3n2CCCCCCCC)c1=O,> 512,> 512,512,512,512,512,> 512,512,512,512,64,> 512,–,–,–,–,–,–,–
O=c1c(F)cn(Cc2nc3ccccc3n2Cc2ccccc2Cl)c(=O)n1Cc1ccccc1Cl,> 512,> 512,> 512,> 512,512,> 512,> 512,512,512,> 512,512,> 512,–,–,–,–,–,–,–
